Measurements as given in patent US7342010B2, “2-thiaquinolizidines and process for the preparation thereof” (Board of Trustees of Michigan State University, priority 2004, dated 2008).
Where two headings read alike, the source gives them in different places.

Legend:
[1] = molecular target: β-glucosidase (almond); conditions: cited from earlier work
[2] = molecular target: T1, α-glucosidase (rice) (Oryza sativa subsp. japonica, UniProt Q653V7); conditions: cited from earlier work; for Ki: literature values, read-out: Inhibition activity Ki, α-glucosidase (rice)
T1 construct: purchased Sigma

[3] = molecular target: α-glucosidase (yeast); conditions: cited from earlier work; for Ki: literature values, read-out: Inhibition activity Ki, α-glucosidase (yeast)
[4] = molecular target: T2, α-galactosidase (green coffee beans) (Coffea arabica, UniProt Q42656); conditions: literature values; n.i. = no inhibition observed; cited from earlier work
T2 construct: purchased Sigma

[5] = molecular target: T3, α-mannosidase (jack beans) (Canavalia ensiformis, UniProt C0HJB3); conditions: cited from earlier work
T3 construct: purchased Sigma
T3 sequence (C0HJB3 1-562 limits assumed): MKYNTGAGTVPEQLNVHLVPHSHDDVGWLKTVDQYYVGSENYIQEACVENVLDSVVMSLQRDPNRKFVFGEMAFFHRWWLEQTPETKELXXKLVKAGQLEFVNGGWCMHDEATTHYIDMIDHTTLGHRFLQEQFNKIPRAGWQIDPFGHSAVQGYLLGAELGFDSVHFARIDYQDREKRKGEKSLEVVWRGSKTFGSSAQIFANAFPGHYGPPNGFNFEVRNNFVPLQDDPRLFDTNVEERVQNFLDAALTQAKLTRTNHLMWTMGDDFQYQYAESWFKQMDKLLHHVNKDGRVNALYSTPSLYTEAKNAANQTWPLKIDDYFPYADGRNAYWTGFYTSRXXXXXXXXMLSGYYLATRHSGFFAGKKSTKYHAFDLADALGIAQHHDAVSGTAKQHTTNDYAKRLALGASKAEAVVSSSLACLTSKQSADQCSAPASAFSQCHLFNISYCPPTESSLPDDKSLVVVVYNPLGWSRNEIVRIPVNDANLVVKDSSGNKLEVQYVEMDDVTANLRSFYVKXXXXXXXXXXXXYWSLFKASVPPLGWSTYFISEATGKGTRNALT
T3 sequence (C0HJB3 563-981 limits assumed): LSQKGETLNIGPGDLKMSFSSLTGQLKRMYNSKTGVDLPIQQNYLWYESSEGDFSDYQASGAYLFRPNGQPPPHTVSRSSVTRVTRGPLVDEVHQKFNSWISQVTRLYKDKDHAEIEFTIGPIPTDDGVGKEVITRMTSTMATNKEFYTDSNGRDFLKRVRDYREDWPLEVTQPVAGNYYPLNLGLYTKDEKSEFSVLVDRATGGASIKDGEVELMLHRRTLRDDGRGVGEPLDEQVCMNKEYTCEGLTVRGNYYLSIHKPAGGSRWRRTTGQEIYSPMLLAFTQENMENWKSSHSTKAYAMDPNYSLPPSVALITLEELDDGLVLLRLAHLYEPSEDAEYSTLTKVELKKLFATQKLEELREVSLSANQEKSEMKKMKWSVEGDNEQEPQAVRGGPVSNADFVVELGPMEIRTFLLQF

[6] = molecular target: T3, α-mannosidase (jack beans); test: Inhibition of jack bean α-mannosidase, nitrophenyl glycoside hydrolysis; type: biochemical
Procedure: (§1) The inhibitory activity of 3 against a series of enzyme was tested. Enzymes were assayed according to standard procedures (Halvorson, H. O., Methods Enzymol. 8, 55 (1966)) by following the hydrolysis of nitrophenyl glycosides spectrophotometrically or by evaluating the reducing sugar formed in some glucosidase assays. The enzymes used were α-glucosidase (yeast and rice), β-glucosidase (almond), α-galactosidase (green coffee beans), β-galactosidase (E. coli) and α-mannosidase (jack beans).
(§2) Inhibitory potency of 3 was determined by spectrophotometrically measuring the residual hydrolytic activities of the glycosidases against the corresponding nitrophenyl α- or β-D-glucopyranoside. The glycosidases used were α-glucosidase (yeast), α-glucosidase (rice), β-glucosidase (almond), α-galactosidase (green coffee beans), β-galactosidase (E. coli) and α-mannosidase (jack beans). All enzymes were purchased from Sigma. Each assay was performed in a phosphate or an acetate buffer at the optimal pH for each enzyme. Inhibition studies (except rice α-glucosidase) were performed by adding the inhibitor to a final concentration of 0.05 mM to 11 mM to the respective buffer solutions along with enzyme. The solutions were incubated at 37° C. before adding substrates to the solutions. The absorbance of the resulting mixture was determined at 400 nm (for p-nitrophenol).

[7] = molecular target: T1, α-glucosidase (rice); test: Inhibition of rice α-glucosidase, maltose substrate, glucose oxidase/peroxidase coupled assay; type: biochemical
Procedure: as §1
as §2, with “Inhibition studies (except rice α-glucosidase) were performed by adding the inhibitor to a final concentration of 0.05 mM to 11 mM to the respective buffer solutions along with enzyme. The solutions were incubated at 37° C. before adding substrates to the solutions.” left out
For rice α-glucosidase inhibition, maltose was used as the substrate, and the assay was based on the glucose oxidase/peroxidase enzyme procedure. […] The absorbance of the solution was determined at 500 nm for oxidized o-dianisidine. […] The absorbance of the solution was determined at 500 nm.

[8] = molecular target: T2, α-galactosidase (green coffee beans); test: Inhibition of green coffee bean α-galactosidase, nitrophenyl glycoside hydrolysis; type: biochemical
Procedure: as §1, §2

[9] = molecular target: T4, β-galactosidase (E. coli) (Escherichia coli, UniProt P00722); test: Inhibition of E. coli β-galactosidase, nitrophenyl glycoside hydrolysis; type: biochemical
T4 construct: purchased Sigma
Procedure: as §1, §2

[10] = tested on: β-glucosidase (almond); test: Inhibition of almond β-glucosidase, nitrophenyl glycoside hydrolysis; type: biochemical
Procedure: as §1, §2

[11] = tested on: T5, α-glucosidase (yeast); test: Inhibition of yeast α-glucosidase, hydrolysis of p-nitrophenylglucoside followed spectrophotometrically; type: biochemical
T5 construct: other: p-nitrophenylglucoside substrate, 37° C
Procedure: as §1, §2

[12] = tested on: β-glucosidase; conditions: literature, enzyme source not stated; cited from earlier work
[13] = literature values, n.i. = no inhibition observed

T4 sequence (P00722 2-1024): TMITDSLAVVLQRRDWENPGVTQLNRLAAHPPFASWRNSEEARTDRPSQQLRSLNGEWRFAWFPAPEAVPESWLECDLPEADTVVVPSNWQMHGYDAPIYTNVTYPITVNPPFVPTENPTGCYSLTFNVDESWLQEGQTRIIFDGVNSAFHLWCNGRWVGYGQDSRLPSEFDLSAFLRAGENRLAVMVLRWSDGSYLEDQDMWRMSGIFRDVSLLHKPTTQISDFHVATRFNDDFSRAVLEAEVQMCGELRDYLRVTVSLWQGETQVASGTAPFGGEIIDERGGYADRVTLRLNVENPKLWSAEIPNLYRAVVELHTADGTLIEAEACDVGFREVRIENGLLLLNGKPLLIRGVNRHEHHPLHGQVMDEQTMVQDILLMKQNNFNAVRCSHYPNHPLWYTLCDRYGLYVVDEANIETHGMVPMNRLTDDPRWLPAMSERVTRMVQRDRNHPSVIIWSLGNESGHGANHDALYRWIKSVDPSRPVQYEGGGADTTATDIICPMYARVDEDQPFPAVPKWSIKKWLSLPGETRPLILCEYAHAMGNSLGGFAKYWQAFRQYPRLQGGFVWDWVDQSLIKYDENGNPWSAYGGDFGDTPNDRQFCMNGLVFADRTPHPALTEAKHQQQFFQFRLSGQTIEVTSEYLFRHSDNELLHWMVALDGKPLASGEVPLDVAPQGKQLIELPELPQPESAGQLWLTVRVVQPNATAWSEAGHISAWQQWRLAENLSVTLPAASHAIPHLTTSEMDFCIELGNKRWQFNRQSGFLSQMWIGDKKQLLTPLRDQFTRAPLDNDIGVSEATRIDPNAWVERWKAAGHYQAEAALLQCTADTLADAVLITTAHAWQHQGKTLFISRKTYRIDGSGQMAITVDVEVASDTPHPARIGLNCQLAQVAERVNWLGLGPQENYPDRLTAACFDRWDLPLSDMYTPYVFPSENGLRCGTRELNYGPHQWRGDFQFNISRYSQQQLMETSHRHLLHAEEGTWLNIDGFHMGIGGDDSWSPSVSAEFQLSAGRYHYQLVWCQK
T1 sequence (Q653V7 34-885): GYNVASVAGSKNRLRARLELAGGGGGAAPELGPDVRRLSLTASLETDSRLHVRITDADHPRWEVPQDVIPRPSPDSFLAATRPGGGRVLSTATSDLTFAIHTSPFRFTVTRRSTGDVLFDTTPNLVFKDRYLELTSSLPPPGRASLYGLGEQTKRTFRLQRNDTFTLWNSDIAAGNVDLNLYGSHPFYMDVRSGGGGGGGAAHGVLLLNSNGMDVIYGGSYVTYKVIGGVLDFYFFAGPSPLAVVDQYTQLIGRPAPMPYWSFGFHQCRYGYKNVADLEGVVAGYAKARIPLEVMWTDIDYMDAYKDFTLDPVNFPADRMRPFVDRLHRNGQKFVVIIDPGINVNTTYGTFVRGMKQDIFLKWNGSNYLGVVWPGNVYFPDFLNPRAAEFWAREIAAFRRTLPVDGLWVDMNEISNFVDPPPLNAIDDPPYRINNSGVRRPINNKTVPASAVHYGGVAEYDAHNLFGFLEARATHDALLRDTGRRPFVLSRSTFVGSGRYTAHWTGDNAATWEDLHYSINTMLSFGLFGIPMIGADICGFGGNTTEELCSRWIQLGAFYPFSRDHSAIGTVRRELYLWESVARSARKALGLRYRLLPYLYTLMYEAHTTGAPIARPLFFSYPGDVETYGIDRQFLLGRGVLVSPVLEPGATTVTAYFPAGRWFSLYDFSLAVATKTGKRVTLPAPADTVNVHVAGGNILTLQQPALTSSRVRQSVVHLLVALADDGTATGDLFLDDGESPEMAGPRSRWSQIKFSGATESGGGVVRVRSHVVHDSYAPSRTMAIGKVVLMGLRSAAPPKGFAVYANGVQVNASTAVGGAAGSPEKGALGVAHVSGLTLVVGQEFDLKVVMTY
T2 sequence (Q42656 16-378): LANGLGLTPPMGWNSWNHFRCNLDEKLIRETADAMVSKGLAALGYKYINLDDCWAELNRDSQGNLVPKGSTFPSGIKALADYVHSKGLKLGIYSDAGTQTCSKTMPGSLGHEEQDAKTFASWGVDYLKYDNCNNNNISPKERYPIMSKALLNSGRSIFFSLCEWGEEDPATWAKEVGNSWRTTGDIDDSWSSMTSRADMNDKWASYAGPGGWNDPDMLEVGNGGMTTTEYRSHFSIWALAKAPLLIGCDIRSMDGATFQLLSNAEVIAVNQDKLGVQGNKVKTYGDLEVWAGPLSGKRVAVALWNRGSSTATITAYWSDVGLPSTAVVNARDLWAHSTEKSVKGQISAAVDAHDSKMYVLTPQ

O[C@H]1[C@H](O)[C@@H](O)CN2CC[C@H](O)[C@H]12 [Compound 1, castanospermine]
Ki [1, 13]: 1.5 µM | Activity against almond β-glucosidase, in words ([1]; literature): inhibiting | Ki [2]: 0.015 µM | Activity against rice α-glucosidase, in words ([2]; literature): strongly inhibited | Ki [3]: > 1500 µM | Activity against yeast α-glucosidase, in words ([3]; literature): poor activity

O[C@@H]1[C@@H](O)[C@H](O)N2CCCC[C@H]2[C@H]1O [compound 10]
Inhibition activity Ki, β-glucosidase (almond) [1, 13]: n.i. | Inhibition activity Ki, α-galactosidase (green coffee beans) [4]: n.i.

O[C@H]1[C@H](O)[C@H](O)CN2CCC[C@H](O)[C@H]12 [compound 11]
IC50 ([1]; literature value, read-out: Inhibition activity IC50, β-glucosidase (almond)): > 2000 µM | IC50 ([5]; literature value, read-out: Inhibition activity IC50, α-mannosidase (jack beans)): > 2000 µM | Inhibition of α-mannosidase, in words ([5]; literature): extremely poor inhibition | IC50 ([3]; literature value, read-out: Inhibition activity IC50, α-glucosidase (yeast)): > 2000 µM

O[C@H]1[C@H](O)[C@@H](O)CN2CCSC[C@H]12 [Compound 3, 7(S),8(R),9(R),10(S)-Trihydroxy-2-thiaquinolizidine]
Inhibitory activity towards α-mannosidase (jack bean), in words ([6]; inhibitor 0.05 mM to 11 mM): No inhibitory activity | Inhibition activity Ki, α-mannosidase (jack beans) ([6]; n.i. = no inhibition observed): n.i.^ | Type of inhibition, rice α-glucosidase ([7]; FIG. 6B): competitive inhibition | Ki ([7]; maltose substrate, sodium acetate buffer pH 4.0, 37° C.): 900 µM | Inhibitory activity towards α-galactosidase (green coffee beans), in words ([8]; inhibitor 0.05 mM to 11 mM): No inhibitory activity | Inhibition activity Ki, α-galactosidase (green coffee beans) ([8]; n.i. = no inhibition observed): n.i.^ | Inhibitory activity towards β-galactosidase (E-coli), in words ([9]; inhibitor 0.05 mM to 11 mM): No inhibitory activity | Inhibition activity Ki, β-galactosidase (E. Coli) ([9]; n.i. = no inhibition observed): n.i.^ | Inhibitory activity towards β-glucosidase (almond), in words ([10]; inhibitor 0.05 mM to 11 mM): No inhibitory activity | Inhibition activity Ki, β-glucosidase (almond) ([10]; n.i. = no inhibition observed): n.i.^b | Type of inhibition, yeast α-glucosidase ([11]; double reciprocal plots, FIG. 6A): competitive inhibition | Ki ([11]; p-nitrophenylglucoside substrate, 37° C.): 330 µM

OC[C@H]1NC[C@H](O)[C@@H](O)[C@@H]1O [compound 2, deoxynojirimycin]
Ki [1, 13]: […] | Ki [2]: 0.01 µM

NC1=N[C@H](CO)[C@@H](O)[C@H](O)[C@H]1O [compound 12]
Ki [1, 13]: 8 µM | Ki [3]: ~10 µM | Ki [4]: ~10 µM

CC1(C)O[C@H]2[C@H](O1)[C@@H](O)CSC[C@@H]2O [compound 13]
Activity against a β-glucosidase, in words [12]: inactive
